# Laboratory results as given in patent publication US20170022171A1, “2,5-DISUBSTITUTED CYCLOPENTANECARBOXYLIC ACIDS AND THEIR USE” (Bayer Pharma Aktiengesellschaft, priority 2014, published 2017).
# Assays:
# Type in all cases: biochemical
# [1] = molecular target: T1, MMP-13 (Homo sapiens, UniProt P45452); experiment: In vitro MMP-13 inhibition test
# T1 construct: purchased R&D Systems 511-MP
# Description: (§1) The MMP-mediated amidolytic cleavage of a suitable peptide substrate leads to an increase in fluorescent light here too. The signal intensity of the fluorescent light is directly proportional to the enzyme activity. The active concentration of a test compound at which half the enzyme is inhibited (50% signal intensity of the fluorescent light) is reported as the IC50 value.
# (§2) Recombinant MMP-13 (from R&D Systems, 511-MP) is chemically activated in accordance with the manufacturer's instructions using APMA. 1 μl of the test compound to be analysed (as a solution in DMSO, suitable concentrations, for example, 1 nM to 30 μM) is pipetted into 24 μl of activated enzyme (final concentration, for example, 0.1 nM) in reaction buffer (50 mM Tris/HCl pH 7.5, 10 mM CaCl2, 150 mM NaCl, 0.05% Brij®-35) in a white 384-hole microtiter plate (MTP). The enzymatic reaction is started by adding the intramolecularly quenched Mca-Pro-Leu-Gly-Leu-Dpa(Dnp)-Ala-Arg-NH2 substrate (final concentration, for example, 10 μM; R&D Systems, ES-001), so as to result in a total test volume of 50 The course of the MMP-13 reaction is measured by measuring the fluorescence intensity (excitation 320 nm, emission 410 nm) over a suitable period of time (for example over 120 min at a temperature of 32° C.).
# [2] = molecular target: T2, MMP-3 (Homo sapiens, UniProt P08254); experiment: In vitro MMP-3 inhibition test
# T2 construct: purchased R&D Systems 513-MP
# T2 sequence (P08254 100-477): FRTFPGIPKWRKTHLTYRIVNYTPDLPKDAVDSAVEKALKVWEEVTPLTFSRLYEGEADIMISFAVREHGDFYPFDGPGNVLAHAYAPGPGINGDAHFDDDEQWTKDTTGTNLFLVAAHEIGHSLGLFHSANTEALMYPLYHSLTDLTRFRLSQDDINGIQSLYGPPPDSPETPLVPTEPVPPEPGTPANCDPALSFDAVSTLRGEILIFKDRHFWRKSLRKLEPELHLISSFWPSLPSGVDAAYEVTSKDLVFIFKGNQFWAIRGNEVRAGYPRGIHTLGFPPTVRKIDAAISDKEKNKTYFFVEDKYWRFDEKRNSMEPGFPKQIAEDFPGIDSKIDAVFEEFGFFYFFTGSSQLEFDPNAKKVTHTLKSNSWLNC
# Description: as §1
# as §2, with “MMP-3” for “MMP-13”, “513-MP)” for “511-MP)”, “2” for “0.1”, “Mca-Arg-Pro-Lys-Pro-Val-Glu-Nval-Trp-Arg-Lys(Dnp)-NH2” for “Mca-Pro-Leu-Gly-Leu-Dpa(Dnp)-Ala-Arg-NH2”, “ES-002),” for “ES-001),”
# [3] = molecular target: T3, MMP-8 (Homo sapiens, UniProt P22894); experiment: In vitro MMP-8 inhibition test
# T3 construct: purchased R&D Systems 908-MP
# T3 sequence (P22894 101-467): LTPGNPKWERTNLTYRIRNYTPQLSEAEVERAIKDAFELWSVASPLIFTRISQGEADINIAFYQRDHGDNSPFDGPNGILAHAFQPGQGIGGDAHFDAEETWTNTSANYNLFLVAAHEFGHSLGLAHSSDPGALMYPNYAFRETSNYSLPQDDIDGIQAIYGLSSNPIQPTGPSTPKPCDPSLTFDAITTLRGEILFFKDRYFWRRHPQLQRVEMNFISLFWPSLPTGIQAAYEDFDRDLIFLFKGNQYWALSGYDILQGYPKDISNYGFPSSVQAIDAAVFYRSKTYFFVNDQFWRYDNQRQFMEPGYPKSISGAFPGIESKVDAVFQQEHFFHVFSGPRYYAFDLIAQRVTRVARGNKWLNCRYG
# Description: as §1
# (§3) Recombinant MMP-8 (from R&D Systems, 908-MP) is chemically activated in accordance with the manufacturer's instructions using APMA. 1 μl of the test compound to be analysed (as a solution in DMSO, suitable concentrations, for example, 1 nM to 30 μM) is pipetted into 24 μl of activated enzyme (final concentration, for example, 0.5 nM) in reaction buffer (50 mM Tris/HCl pH 7.5, 10 mM CaCl2, 150 mM NaCl, 0.05% Brij®-35) in a white 384-hole microtiter plate (MTP). The enzymatic reaction is started by adding the intramolecularly quenched Mca-Pro-Leu-Gly-Leu-Dpa(Dnp)-Ala-Arg-NH2 substrate (final concentration, for example, 10 μM; R&D Systems, ES-001), so as to result in a total test volume of 50 μl. The course of the MMP-8 reaction is measured by measuring the fluorescence intensity (excitation 320 nm, emission 410 nm) over a suitable period of time (for example over 120 min at a temperature of 32° C.).
# [4] = molecular target: T4, MMP-7 (Homo sapiens, UniProt P09237); experiment: In vitro MMP-7 inhibition test
# T4 construct: purchased R&D Systems 907-MP
# T4 sequence (P09237 95-267): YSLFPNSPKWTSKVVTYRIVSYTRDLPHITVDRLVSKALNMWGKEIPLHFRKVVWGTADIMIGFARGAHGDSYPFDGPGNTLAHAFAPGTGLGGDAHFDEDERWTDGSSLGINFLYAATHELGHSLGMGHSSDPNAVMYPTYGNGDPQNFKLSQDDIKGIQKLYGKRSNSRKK
# Description: as §1
# as §3, with “MMP-7” for “MMP-8”, “907-MP)” for “908-MP)”, “[…]” for “50 μl.”
# [5] = molecular target: T5, MMP-16 (Homo sapiens, UniProt P51512); experiment: In vitro MMP-16 inhibition test
# T5 construct: purchased R&D Systems 1785-MP
# T5 sequence (P51512 120-564 limits assumed): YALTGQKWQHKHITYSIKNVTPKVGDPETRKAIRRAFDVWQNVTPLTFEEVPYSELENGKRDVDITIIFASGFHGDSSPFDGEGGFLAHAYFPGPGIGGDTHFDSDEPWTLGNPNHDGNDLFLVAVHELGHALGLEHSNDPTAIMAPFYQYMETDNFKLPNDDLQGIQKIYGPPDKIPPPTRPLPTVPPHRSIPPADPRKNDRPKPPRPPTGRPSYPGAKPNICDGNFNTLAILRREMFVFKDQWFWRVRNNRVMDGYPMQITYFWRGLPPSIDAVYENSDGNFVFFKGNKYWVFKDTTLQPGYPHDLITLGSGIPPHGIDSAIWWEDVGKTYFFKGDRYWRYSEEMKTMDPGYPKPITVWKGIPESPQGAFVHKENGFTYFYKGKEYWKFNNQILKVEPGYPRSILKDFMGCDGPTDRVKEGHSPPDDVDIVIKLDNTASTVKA
# Description: as §1
# Recombinant MMP-16 (from R&D Systems, 1785-MP) is enzymatically activated in accordance with the manufacturer's instructions using recombinant furin (from R&D Systems, 1503-SE). 1 μl of the test compound to be analysed (as a solution in DMSO, suitable concentrations e.g. 1 nM to 30 μM) is pipetted into 24 μl of activated enzyme (final concentration e.g. 1 nM) in reaction buffer (50 mM Tris/HCl pH 7.5, 10 mM CaCl2, 150 mM NaCl, 0.05% Brij®-35) in a white 384-hole microtiter plate (MTP). The enzymatic reaction is started by adding the intramolecularly quenched Mca-Lys-Pro-Leu-Gly-Leu-Dpa(Dnp)-Ala-Arg-NH2 substrate (final concentration, for example, 5 μM; R&D Systems, ES-010), so as to result in a total test volume of 50 The course of the MMP-16 reaction is measured by measuring the fluorescence intensity (excitation 320 nm, emission 410 nm) over a suitable period of time (for example over 120 min at a temperature of 32° C.).
IC50 [1],IC50 [2],IC50 [3],IC50 [4],IC50 [5],Structure (SMILES)
0.058 µM,1.1 µM,0.014 µM,2.2 µM,0.17 µM,"O=C(O)[C@H]1[C@H](Cn2nnc3ccccc3c2=O)CC[C@@H]1C(=O)c1ccc(OCC2CCCC2)cc1 (racemic) [Example 4, (+/−)-(1RS,2RS,5SR)-2-[4-(Cyclopentylmethoxy)benzoyl]-5-[(4-oxo-1,2,3-benzotriazin-3(4H)-yl)methyl]cyclopentanecarboxylic acid]"
0.35 µM,1.5 µM,0.25 µM,2.4 µM,2.5 µM,"O=C(O)[C@H]1[C@H](Cn2nnc3ccccc3c2=O)CC[C@@H]1C(=O)c1ccc(OCCC2CCCCC2)cc1 (racemic) [Example 5, (+/−)-(1RS,2RS,5SR)-2-[4-(2-Cyclohexylethoxy)benzoyl]-5-[(4-oxo-1,2,3-benzotriazin-3(4H)-yl)methyl]cyclopentanecarboxylic acid]"
0.088 µM,0.1 µM,0.0032 µM,0.087 µM,4.5 µM,"O=C(O)[C@H]1[C@H](Cn2nnc3ccc(C(F)(F)F)cc3c2=O)CC[C@@H]1C(=O)c1ccc(OCc2ccccc2)cc1 (racemic) [Example 11, (+/−)-(1RS,2RS,5SR)-2-[4-(Benzyloxy)benzoyl]-5-{[4-oxo-6-(trifluoromethyl)-1,2,3-benzotriazin-3(4H)-yl]methyl}cyclopentanecarboxylic acid]"
0.039 µM,0.028 µM,0.00067 µM,0.16 µM,0.086 µM,"O=C(O)[C@H]1[C@H](Cn2nnc3ccc(C(F)(F)F)cc3c2=O)CC[C@@H]1C(=O)c1ccc(OCc2ccc(F)cc2)cc1 (racemic) [Example 12, (+/−)-(1RS,2RS,5SR)-2-{4-[(4-Fluorobenzyl)oxy]benzoyl}-5-{[4-oxo-6-(trifluoromethyl)-1,2,3-benzotriazin-3(4H)-yl]methyl}cyclopentanecarboxylic acid]"
0.64 µM,0.22 µM,0.026 µM,0.12 µM,0.52 µM,"Cc1cccc(COc2ccc(C(=O)[C@H]3CC[C@@H](Cn4nnc5ccc(C(F)(F)F)cc5c4=O)[C@@H]3C(=O)O)cc2)c1 (racemic) [Example 15, (+/−)-(1RS,2RS,5SR)-2-{4-[(3-Methylbenzyl)oxy]benzoyl}-5-{[4-oxo-6-(trifluoromethyl)-1,2,3-benzotriazin-3(4H)-yl]methyl}cyclopentanecarboxylic acid]"
0.38 µM,0.18 µM,0.0063 µM,0.26 µM,0.92 µM,"O=C(O)[C@H]1[C@H](Cn2nnc3ccc(C(F)(F)F)cc3c2=O)CC[C@@H]1C(=O)c1ccc(OCC2CCCCC2)cc1 (racemic) [Example 40, (+/−)-(1RS,2RS,5SR)-2-[4-(Cyclohexylmethoxy)benzoyl]-5-{[4-oxo-6-(trifluoromethyl)-1,2,3-benzotriazin-3(4H)-yl]methyl}cyclopentanecarboxylic acid]"

# Second part, the compound before the results:
Structure (SMILES),IC50 [1],IC50 [2],IC50 [3],IC50 [4],IC50 [5]
"O=C(O)[C@H]1[C@H](Cn2nnc3ccccc3c2=O)CC[C@@H]1C(=O)c1ccc(OCc2ccc(F)cc2)cc1 (racemic) [Example 1, (+/−)-(1RS,2RS,5SR)-2-{4-[(4-Fluorobenzyl)oxy]benzoyl}-5-[(4-oxo-1,2,3-benzotriazin-3(4H)-yl)methyl]cyclopentanecarboxylic acid]",0.011 µM,0.17 µM,0.0025 µM,1.1 µM,0.13 µM
"O=C(O)[C@H]1[C@H](Cn2nnc3ccccc3c2=O)CC[C@@H]1C(=O)c1ccc(OCc2cccc(Cl)c2)cc1 (racemic) [Example 2, (+/−)-(1RS,2RS,5SR)-2-{4-[(3-Chlorobenzyl)oxy]benzoyl}-5-[(4-oxo-1,2,3-benzotriazin-3(4H)-yl)methyl]cyclopentanecarboxylic acid]",0.4 µM,2.1 µM,0.44 µM,5.3 µM,1 µM
"O=C(O)[C@H]1[C@H](Cn2nnc3ccccc3c2=O)CC[C@@H]1C(=O)c1ccc(OCc2ccc(Cl)c(Cl)c2)cc1 (racemic) [Example 3, (+/−)-(1RS,2RS,5SR)-2-{4-[(3,4-Dichlorobenzyl)oxy]benzoyl}-5-[(4-oxo-1,2,3-benzotriazin-3(4H)-yl)methyl]cyclopentanecarboxylic acid]",0.34 µM,1.5 µM,0.26 µM,4.9 µM,4 µM
"O=C(O)[C@H]1[C@H](Cn2nnc3ccc(C(F)(F)F)cc3c2=O)CC[C@@H]1C(=O)c1ccc(OCc2cccc(C(F)(F)F)c2)cc1 (racemic) [Example 18, (+/−)-(1RS,2SR,5RS)-2-{[4-Oxo-6-(trifluoromethyl)-1,2,3-benzotriazin-3(4H)-yl]methyl}-5-(4-{[3-(trifluoromethyl)benzyl]oxy}benzoyl)cyclopentanecarboxylic acid]",1.4 µM,1 µM,0.061 µM,0.91 µM,4 µM
"O=C(O)[C@H]1[C@H](Cn2nnc3ccc(C(F)(F)F)cc3c2=O)CC[C@@H]1C(=O)c1ccc(OCCCc2ccccc2)cc1 (racemic) [Example 39, (+/−)-(1RS,2SR,5RS)-2-{[4-Oxo-6-(trifluoromethyl)-1,2,3-benzotriazin-3(4H)-yl]methyl}-5-[4-(3-phenylpropoxy)benzoyl]cyclopentanecarboxylic acid]",1.6 µM,0.42 µM,0.29 µM,0.73 µM,14 µM
